How the values were obtained:
Type in all cases: cell-based
global 5hmC level = assay: Global 5hmC level (5hmC labeling and dot-blotting); settings: for global 5hmC levels: MONOMAC-6 cells
Description: (§1) FIG. 1. […] Cell viability was analyzed by MTS 48 hours post-treatment. […] TET1 expression levels were detected by qPCR 48 hrs post-treatment. […] TET1 expression levels (e) and cell viability (f) were detected 24 hrs post-treatment. *, P<0.05, two-tailed t-test. MM6, MONOMAC-6. Error bar indicates SD of triplicate experiments.
The 5-hydroxymethylcytosine (5-hmC) labeling reactions and 5hmC dot blotting were performed as described previously (Huang, H., et al. TET1 plays an essential oncogenic role in MLL-rearranged leukemia. Proc Natl Acad Sci USA 110, 11994-11999 (2013)). Briefly, 3 jig sonicated genomic DNA (100-500 bp) fragments were incubated in solution containing 50 mM Hepes buffer (pH 7.9), 25 mM MgCl2, 100 jiM UDP-6-N3-Glc, and 1 jiM beta-glucosyltransferase (f3-GT) for 1 hr at 37° C. The CLICK was performed with addition of 150 jiM dibenzocyclooctyne modified biotin into the purified DNA solution, and the reaction mixture was incubated for 2 hrs at 37° C. Six hundred nanograms of labeled genomic DNA samples were spotted on an Amersham Hybond-N+ membrane (GE Healthcare, Little Chalfont, UK). DNA was fixed to the membrane by Stratagene UV Stratalinker 2400 (auto-crosslink). The membrane was then blocked with 5% BSA and incubated with Avidin-HRP (1:40,000) (Bio-Rad, Hercules, Calif.), and then visualized by enhanced chemiluminescence.

[1] = test system: BM cells of leukemic mice with MLL-AF9 fusion (MA9-AML) or FLT3-ITD/NPM1^mut; assay: MTS and apoptosis assays in BM cells of leukemic mice; settings: 50 nM; 3 days
Description: FIG. 14. […] BM cells of leukemic mice with MLL-AF9 fusion (MA9-AML) or FLT3-ITD/NPM1^mut, and c-Kit^+ HSPCs from a pool of 6 healthy donor mice were cultured in liquid medium. […] MTS (a), apoptosis assays (b) and qPCR (c) were conducted 3 days after cell seeding or drug treatments. Error bar indicates SD of triplicate experiments.
(§2) These experiments were conducted as described previously (Jiang, X., et al., Blockade of miR-150 Maturation by MLL-Fusion/MYC/LIN-28 Is Required for MLL-Associated Leukemia, Cancer Cell 22:524-35 (2012); Li, Z., et al., miR-196b directly targets both HOXA9/MEIS1 oncogenes and FAS tumour suppressor in MLL-rearranged leukaemia, Nat Commun 2:688 (2012)) with ApoLive-Glo Multiplex Assay Kit, or CellTiter 96 AQueous Non-Radioactive Cell Proliferation Assay Kit (Promega, Madison, Wis.).

[2] = test system: Tet1 deficient mouse BM progenitor cells transduced with MLL-AF9; assay: Viability of MLL-AF9-transduced Tet1 deficient BM progenitor cells; settings: 48 hrs; for cell viability: Tet1 deficient counterpart cells; for viability of cells with induced Tet1 deficiency: conditional Tet1 knockout, polyI:C induced, 500 nM
Description: FIG. 5. […] Gene expression levels are shown. […] ChIP-qPCR assay was carried out 48 hrs after drug treatment. Enrichment of STAT3, STAT5, or IgG at the TET1 promoter region and other regions are shown. […] BM progenitor cells of wild-type or Tet1^−/− mice were retrovirally transduced with MLL-AF9. […] Relative cell viabilities are shown. (m) Cre-Tet1f mouse BM progenitor cells were retrovirally transduced with MLL-AF9. […] Relative cell viability is shown. (n-o) THP-1 (n) and MONOMAC-6 (o) cells were infected with lentivirus of pLenti-puro vector-based Tet1 construct. […] Relative cell viability is shown. *, P<0.05; **, P<0.01, two-tailed t-test. Error bar indicates SD of triplicate experiments.
FIG. 13. […] (a-d) BM progenitor cells of wild-type or Tet1^−/− mice were retrovirally transduced with MLL-AF9. Infected cells were treated with 200 nM JAK/STAT inhibitors individually, including Pacritinib (a), KW-2449 (b), Stattic (c) or sc-355979 (d), for 48 hrs. Relative cell viabilities are shown. (e) Cre-Tet1^fl/fl mouse BM progenitor cells were retrovirally transduced with MLL-AF9. […] Cell viabilities (normalized to non-induced Cre-Tet1^fl/fl treated with DMSO control) are shown. ‘K, P<0.05; ‘K‘K, P<0.01, two-tailed t-test
siRNAs were transfected into MONOMAC-6 cells with Cell Line Nucleofector Kit V following program T-037, using the Amaxa Nucleofector Technology (Amaxa Biosystems, Berlin, Germany). Experiments were performed 48 h after transfection. Retrovirus infection of mouse BM progenitor cells were conducted as described previously with some modifications. Briefly, retrovirus vectors were co-transfected with pCL-Eco packaging vector (IMGENEX, San Diego, Calif.) into HEK293T cells using Effectene Transfection Reagent (Qiagen, Valencia, Calif.) to produce retrovirus. BM cells were harvested from a cohort of 4- to 6-week-old C57BL/6, Tet1^−/−, or Cre-Tet1^fl/fl donor mice after five days of 5-fluorouracil (5-FU) treatment, and primitive hematopoietic progenitor cells were enriched with Mouse Lineage Cell Depletion Kit (Miltenyi Biotec Inc., Auburn, Calif.). An aliquot of enriched hematopoietic progenitor cells was added to retroviral supernatant together with polybrene in cell culture plates, which were centrifuged at 2,000 g for 2 hours at 32° C. (i.e., spinoculation) and then the medium was replaced with fresh media and incubated for 20 hours at 37° C. Next day, the same procedure was repeated once. Infected cells were grown in RPMI 1640 medium containing 10 ng/mL murine recombinant IL-3, 10 ng/mL IL-6, 100 ng/mL murine recombinant SCF (R&D Systems, Minneapolis, Minn.), along with 1.0 mg/ml of G418. Experiments were performed 7 days after infection.
as §2

TET1 = TET1 expression by qPCR in AML cell lines
Description: as §1
Total RNA was extracted with the miRNeasy extraction kit (Qiagen) and was used as template for quantitative RT-PCR (qPCR) analysis.

With `COc1cc(C(c2cc3c(cc2O)OCO3)N2CCCC2)cc(OC)c1OC` (stereo not drawn) [NSC-370284, 6-(1-Pyrrolidinyl(3,4,5-trimethoxyphenyl)methyl)-1,3-benzodioxol-5-ol] the “global 5hmC level” value (global 5hmC level; 300 nM, THP-1 and MONOMAC-6 cells) was “significantly repressed”, the “global 5hmC levels” value (global 5hmC level) was “significantly reduced” and the “viability of AML cells” value [1] was “dramatically suppressed”. The cell viability [2] was “no such inhibition”, the “viability of cells with induced Tet1 deficiency” value [2] was “no significant effect” and the TET1 transcription (TET1; 25 nM, 24 hours, MONOMAC-6, THP-1 and KOCL-48 cells) was “significant down-regulation”. For the same molecule, the “level of TET1 expression” value (TET1; TET1-high AML cells, 300 nM, qPCR 48 hrs) was “significantly repressed”.

In the case of `CC(C)(C)c1cc(C(c2cc3c(cc2O)OCO3)N2CCOCC2)cc(C(C)(C)C)c1O` (stereo not drawn) [UC-514321, 6-{[4-Hydroxy-3,5-bis(2-methyl-2-propanyl)phenyl](4-morpholinyl)methyl}-1,3-benzodioxol-5-ol], the “global 5hmC levels” value (global 5hmC level) is reported as “significantly reduced”, the “viability of AML cells” value [1] is reported as “dramatically suppressed” and the cell viability [2] is reported as “no such inhibition”. For the same molecule, the “viability of cells with induced Tet1 deficiency” value [2] was “no significant effect” and the “expression of TET1, TET2, TET3” value (TET1; MONOMAC-6 cells, 500 nM, 48 hrs) was “significantly repressed expression of TET1, but not TET2 or TET3”.

Source: patent US11311513B2, “Methods, agents, and compositions for the treatment of acute myeloid leukemia” (UNIVERSITY OF CINCINNATI, priority 2017, dated 2022)
